Data as given in ChEMBL document CHEMBL1201862, “PubChem BioAssay data set” (2004).
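Protocol summary: plate cells (96-well), add compound at 5 concentrations, incubate 48 h, interpolate endpoints linearly. GI50 is the concentration that inhibits growth by half.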 The source made the active and inactive calls. No stated cut-off is given here; in the data, active = GI50 up to about 1.1 µM and inactive = higher.

Assays:
Assay in all cases: NCI anticancer screen, dose series, 48 h
SK-MEL-5 = test system: SK-MEL-5
U-251 = test system: U-251
OVCAR-8 = test system: OVCAR-8
Malme-3M = test system: Malme-3M
ACHN = test system: ACHN
HOP-62 = test system: HOP-62
SK-OV-3 = test system: SK-OV-3
UACC-62 = test system: UACC-62
TK-10 = test system: TK-10
786-0 = test system: 786-0
HOP-18 = test system: HOP-18
SNB-75 = test system: SNB-75
OVCAR-4 = test system: OVCAR-4
UO-31 = test system: UO-31
RPMI-8226 = test system: RPMI-8226
LXFL 529 = test system: LXFL 529
HL-60 = test system: HL-60
HOP-92 = test system: HOP-92
SK-MEL-28 = test system: SK-MEL-28
MOLT-4 = test system: MOLT-4
XF498 = test system: XF498
HCT-15 = test system: HCT-15
DMS-273 = test system: DMS-273
OVCAR-3 = test system: OVCAR-3
COLO 205 = test system: COLO 205
A549 = test system: A549
SN12C = test system: SN12C
SK-MEL-2 = test system: SK-MEL-2
M14 = test system: M14
OVCAR-5 = test system: OVCAR-5
KM12 = test system: KM12
NCI-H522 = test system: NCI-H522
NCI-H23 = test system: NCI-H23
SF-295 = test system: SF-295
DMS-114 = test system: DMS-114
SF-268 = test system: SF-268
CAKI-1 = test system: CAKI-1
HT-29 = test system: HT-29
A498 = test system: A498
LOX IMVI = test system: LOX IMVI
IGROV-1 = test system: IGROV-1
SF-539 = test system: SF-539
CCRF-CEM = test system: CCRF-CEM
EKVX = test system: EKVX
SNB-78 = test system: SNB-78
NCI-H460 = test system: NCI-H460
K562 = test system: K562
HCC 2998 = test system: HCC 2998
RXF 393 = test system: RXF 393
SNB-19 = test system: SNB-19
M19-MEL = test system: M19-MEL
HCT-116 = test system: HCT-116
UACC-257 = test system: UACC-257
SR = test system: SR
SW-620 = test system: SW-620
KM-20L2 = test system: KM-20L2
DLD-1 = test system: DLD-1
NCI-H226 = test system: NCI-H226

**Q.** For `CC(C)=CC1C[C@H](C2CC=C3C2(C)CCC2[C@@]3(C)C(=O)CC3[C@]2(C)C=CC(=O)[C@]3(C)CO)CO1` (stereo partly drawn), which GI50 (SK-MEL-5) is on record?
**A.** 10 µM (inactive)

**Q.** And the GI50 (U-251)?
**A.** 8.83 µM (inactive)

**Q.** What about the GI50 (OVCAR-8) of the same compound?
**A.** 4.55 µM (inactive)

**Q.** And the GI50 (Malme-3M)?
**A.** 11.5 µM (inactive)

**Q.** And the GI50 (ACHN)?
**A.** 13.2 µM (inactive)

**Q.** And the GI50 (HOP-62)?
**A.** 12.7 µM (inactive)

**Q.** And the GI50 (SK-OV-3)?
**A.** 16.6 µM (inactive)

**Q.** And the GI50 (UACC-62)?
**A.** 11.8 µM (inactive)

**Q.** And the GI50 (TK-10)?
**A.** 25.8 µM (inactive)

**Q.** What about the GI50 (786-0) of the same compound?
**A.** 5.96 µM (inactive)

**Q.** What about the GI50 (HOP-18) of the same compound?
**A.** 11 µM (inactive)

**Q.** What about the GI50 (SNB-75) of the same compound?
**A.** 8.04 µM (inactive)

**Q.** And the GI50 (OVCAR-4)?
**A.** 10.7 µM (inactive)

**Q.** And the GI50 (UO-31)?
**A.** 18.6 µM (inactive)

**Q.** What about the GI50 (RPMI-8226) of the same compound?
**A.** 3.15 µM (inactive)

**Q.** What about the GI50 (LXFL 529) of the same compound?
**A.** 3.45 µM (inactive)

**Q.** And the GI50 (HL-60)?
**A.** 2.92 µM (inactive)

**Q.** And the GI50 (HOP-92)?
**A.** 16.6 µM (inactive)

**Q.** And the GI50 (SK-MEL-28)?
**A.** 5.2 µM (inactive)

**Q.** And the GI50 (MOLT-4)?
**A.** 2.7 µM (inactive)

**Q.** What about the GI50 (XF498) of the same compound?
**A.** 4.93 µM (inactive)

**Q.** And the GI50 (HCT-15)?
**A.** 14.4 µM

**Q.** And the GI50 (DMS-273)?
**A.** 5.66 µM (inactive)

**Q.** What about the GI50 (OVCAR-3) of the same compound?
**A.** 4.84 µM (inactive)

**Q.** What about the GI50 (COLO 205) of the same compound?
**A.** 14 µM (inactive)

**Q.** And the GI50 (A549)?
**A.** 20.8 µM (inactive)

**Q.** And the GI50 (SN12C)?
**A.** 20.3 µM (inactive)

**Q.** What about the GI50 (SK-MEL-2) of the same compound?
**A.** 5.45 µM (inactive)

**Q.** What about the GI50 (M14) of the same compound?
**A.** 3.12 µM (inactive)

**Q.** And the GI50 (OVCAR-5)?
**A.** 21 µM (inactive)

**Q.** And the GI50 (KM12)?
**A.** 5.92 µM (inactive)

**Q.** What about the GI50 (NCI-H522) of the same compound?
**A.** 2.73 µM (inactive)

**Q.** What about the GI50 (NCI-H23) of the same compound?
**A.** 5.42 µM (inactive)

**Q.** What about the GI50 (SF-295) of the same compound?
**A.** 13 µM (inactive)

**Q.** And the GI50 (DMS-114)?
**A.** 4.23 µM (inactive)

**Q.** What about the GI50 (SF-268) of the same compound?
**A.** 5.82 µM (inactive)

**Q.** And the GI50 (CAKI-1)?
**A.** 23.9 µM (inactive)

**Q.** And the GI50 (HT-29)?
**A.** 4.15 µM (inactive)

**Q.** And the GI50 (A498)?
**A.** 8.81 µM (inactive)

**Q.** And the GI50 (LOX IMVI)?
**A.** 3.76 µM (inactive)

**Q.** And the GI50 (IGROV-1)?
**A.** 13.6 µM (inactive)

**Q.** What about the GI50 (SF-539) of the same compound?
**A.** 4.57 µM (inactive)

**Q.** What about the GI50 (CCRF-CEM) of the same compound?
**A.** 2.96 µM (inactive)

**Q.** And the GI50 (EKVX)?
**A.** 26.2 µM (inactive)

**Q.** What about the GI50 (SNB-78) of the same compound?
**A.** 13.6 µM (inactive)

**Q.** And the GI50 (NCI-H460)?
**A.** 11.6 µM (inactive)

**Q.** What about the GI50 (K562) of the same compound?
**A.** 4.34 µM (inactive)

**Q.** What about the GI50 (HCC 2998) of the same compound?
**A.** 16.3 µM (inactive)

**Q.** What about the GI50 (RXF 393) of the same compound?
**A.** 10.4 µM (inactive)

**Q.** What about the GI50 (SNB-19) of the same compound?
**A.** 19 µM (inactive)

**Q.** What about the GI50 (M19-MEL) of the same compound?
**A.** 3.85 µM (inactive)

**Q.** And the GI50 (HCT-116)?
**A.** 3.37 µM (inactive)

**Q.** And the GI50 (UACC-257)?
**A.** 13.9 µM (inactive)

**Q.** And the GI50 (SR)?
**A.** 3.02 µM (inactive)

**Q.** And the GI50 (SW-620)?
**A.** 4.28 µM (inactive)

**Q.** And the GI50 (KM-20L2)?
**A.** 5.42 µM (inactive)

**Q.** `C[C@@H](NC1CCC[C@H]1O)c1ccccc1` (stereo partly drawn) was tested. Which GI50 (SK-MEL-5) did it give?
**A.** > 100 µM (inactive)

**Q.** And the GI50 (U-251)?
**A.** > 100 µM (inactive)

**Q.** What about the GI50 (OVCAR-8) of the same compound?
**A.** > 100 µM (inactive)

**Q.** What about the GI50 (Malme-3M) of the same compound?
**A.** > 100 µM (inactive)

**Q.** And the GI50 (ACHN)?
**A.** > 100 µM (inactive)

**Q.** What about the GI50 (HOP-62) of the same compound?
**A.** > 100 µM (inactive)

**Q.** What about the GI50 (SK-OV-3) of the same compound?
**A.** > 100 µM (inactive)

**Q.** And the GI50 (UACC-62)?
**A.** > 100 µM (inactive)

**Q.** What about the GI50 (TK-10) of the same compound?
**A.** > 100 µM (inactive)

**Q.** And the GI50 (786-0)?
**A.** > 100 µM (inactive)

**Q.** What about the GI50 (HOP-18) of the same compound?
**A.** > 100 µM (inactive)

**Q.** What about the GI50 (SNB-75) of the same compound?
**A.** > 100 µM (inactive)

**Q.** And the GI50 (OVCAR-4)?
**A.** > 100 µM (inactive)

**Q.** And the GI50 (UO-31)?
**A.** > 100 µM (inactive)

**Q.** What about the GI50 (RPMI-8226) of the same compound?
**A.** > 100 µM (inactive)

**Q.** And the GI50 (LXFL 529)?
**A.** > 100 µM (inactive)

**Q.** What about the GI50 (HL-60) of the same compound?
**A.** > 100 µM (inactive)

**Q.** And the GI50 (HOP-92)?
**A.** > 100 µM (inactive)

**Q.** What about the GI50 (SK-MEL-28) of the same compound?
**A.** > 100 µM (inactive)

**Q.** What about the GI50 (MOLT-4) of the same compound?
**A.** > 100 µM (inactive)

**Q.** And the GI50 (XF498)?
**A.** 5.66 µM (inactive)

**Q.** And the GI50 (HCT-15)?
**A.** > 100 µM

**Q.** What about the GI50 (DMS-273) of the same compound?
**A.** > 100 µM (inactive)

**Q.** And the GI50 (OVCAR-3)?
**A.** > 100 µM (inactive)

**Q.** What about the GI50 (COLO 205) of the same compound?
**A.** > 100 µM (inactive)

**Q.** What about the GI50 (A549) of the same compound?
**A.** > 100 µM (inactive)

**Q.** What about the GI50 (SN12C) of the same compound?
**A.** > 100 µM (inactive)

**Q.** And the GI50 (SK-MEL-2)?
**A.** > 100 µM (inactive)

**Q.** And the GI50 (M14)?
**A.** > 100 µM (inactive)

**Q.** And the GI50 (OVCAR-5)?
**A.** > 100 µM (inactive)

**Q.** And the GI50 (DLD-1)?
**A.** > 100 µM (inactive)

**Q.** What about the GI50 (KM12) of the same compound?
**A.** > 100 µM (inactive)

**Q.** What about the GI50 (SF-295) of the same compound?
**A.** > 100 µM (inactive)

**Q.** And the GI50 (DMS-114)?
**A.** > 100 µM (inactive)

**Q.** And the GI50 (CAKI-1)?
**A.** > 100 µM (inactive)

**Q.** What about the GI50 (HT-29) of the same compound?
**A.** > 100 µM (inactive)

**Q.** And the GI50 (LOX IMVI)?
**A.** > 100 µM (inactive)

**Q.** And the GI50 (IGROV-1)?
**A.** > 100 µM (inactive)

**Q.** What about the GI50 (CCRF-CEM) of the same compound?
**A.** > 100 µM (inactive)

**Q.** And the GI50 (EKVX)?
**A.** > 100 µM (inactive)

**Q.** And the GI50 (SNB-78)?
**A.** > 100 µM (inactive)

**Q.** And the GI50 (NCI-H460)?
**A.** > 100 µM (inactive)

**Q.** And the GI50 (K562)?
**A.** > 100 µM (inactive)

**Q.** And the GI50 (HCC 2998)?
**A.** > 100 µM (inactive)

**Q.** And the GI50 (RXF 393)?
**A.** > 100 µM (inactive)

**Q.** And the GI50 (SNB-19)?
**A.** > 100 µM (inactive)

**Q.** And the GI50 (M19-MEL)?
**A.** > 100 µM (inactive)

**Q.** And the GI50 (HCT-116)?
**A.** > 100 µM (inactive)

**Q.** What about the GI50 (UACC-257) of the same compound?
**A.** > 100 µM (inactive)

**Q.** What about the GI50 (SW-620) of the same compound?
**A.** > 100 µM (inactive)

**Q.** And the GI50 (KM-20L2)?
**A.** > 100 µM (inactive)

**Q.** What about the GI50 (NCI-H226) of the same compound?
**A.** > 100 µM (inactive)
